Laboratory results from US20110182982A1, “LIPOSOME TREATMENT OF VIRAL INFECTIONS” (University of Oxford, priority 2006, published 2011).

How the values were obtained:
HIV-1 isolate: 89.6 = assay: p24 secretion of HIV-1-infected PBMCs; assay type: cell-based; details: for % p24 secretion Week 1-rb / % p24 secretion Week 2-rb / % p24 secretion Week 3-rb / % p24 secretion Week 4-rb: treatment removed 2 weeks
Protocol: Clearance of HIV-1 primary isolates from infected human cells by NB-DNJ was assessed using phytohemagglutinin (PHA)-activated peripheral blood mononuclear cells (PBMCs) as indicator cells and the determination of p24 antigen production as the end point.
PBMCs from four normal (uninfected) donors were isolated, pooled, and stimulated with PHA (5 μg/ml) for 48 h followed by PHA plus interleukin-2 (40 U/ml) for 72 h in RPMI 1640 medium containing 10% heat-inactivated fetal bovine serum (FBS), 100 U of penicillin per ml, 100 μg of streptomycin per ml, and 2 mM L-glutamine. All experiments were performed in 96-well microtiter plates. To infect cells, 100 μl of PHA-activated PBMCs (5×10^5/ml) was added to each well, after which an equal volume containing 100 50% tissue culture infective doses (TCID50) of primary isolate stock was added. After an overnight incubation, the cells were washed three times with tissue culture medium, and finally re-suspended in medium containing the appropriate liposome treatment or free NB-DNJ. On day 7, approximately 10-30% of the culture volume containing secreted HIV-1 virions was used to infect naïve PBMCs for a second round of infection and treatment (volume transferred was calculated to be the volume necessary for the untreated control of that isolate to infect naïve cells at a TCID50=100). Rounds of treatment and infection of naïve cells were continued over four weeks, and at every time point cellular supernatant containing secreted virions was isolated and used in capture ELISAs to determine p24 concentration (measure of secretion). Additionally, supernatant isolated at each time point throughout treatment was used to infect naïve PBMCs (TCID50=100) for two weeks with no further treatment, which allowed for the observation of a rebound in viral activity.
PBMCs infected with 8 primary isolates (listed in Table 3) were incubated in the presence of free NB-DNJ (concentrations ranging 0-1 mM) or liposome-encapsulated NB-DNJ (0-3.75 μM, final lipid concentration of 50 μM).

CHO cells = assay: Liposome uptake (Rh-PE) and intracellular calcein dequenching; assay type: cell-based, Chinese hamster
Protocol: The effects of different DNJ compounds on the cellular uptake and intracellular release, when encapsulated inside DCPP liposomes, was determined by diluting compounds in 80-mM calcein and incorporating Rh-PE in liposome membranes as previously described, with the final liposome composition being DOPE:CHEMS:PEG-PE:Rh-PE (DCPP-Rh, 6:4:0.3:0.1) Liposomes encapsulating calcein alone, 10-μM DNJ, 1-mM DNJ, 10-μM NB-DNJ, 1-mM NB-DNJ, 10-μM NN-DNJ, or 1-mM NN-DNJ, were incubated with CHO cells for 45 min before liposomes were removed and cells were washed twice in 1×PBS. Cells were then analyzed in a fluorometer to measure calcein dequenching (λex=490 and λem=520 nm) and rhodamine fluorescence (λex=584 and λem=612 nm). Data represent the mean±S.D. obtained from triplicates of four independent experiments, where mean rhodamine fluorescence values reflect the binding and uptake of liposomes and the mean calcein fluorescence reflects the intracellular dequenching of the dye (i.e. dye released from liposomes into intracellular compartments). Results are expressed as the percent fluorescence measured following incubation with DNJ-containing liposomes as compared to the calcein/PBS-only liposome control (=100% on the x axis).
The calculated ratio of calcein to rhodamine fluorescence is taken as a measure of the amount of aqueous marker released per cell-associated liposome, and represents the efficiency of intracellular delivery.

[1] = pH sensitivity of DCPP liposomes (calcein leakage); assay type: physicochemical; details: 1 mM encapsulated, pH 5.0-7.4, vs calcein only liposomes
Protocol: DCPP liposomes encapsulating 1-mM DNJ, NB-DNJ, or NN-DNJ in 80-mM calcein buffer were compared with empty (calcein only) liposomes to determine the effects of the alkyl chain of NB-DNJ and NN-DNJ on the pH-sensitivity. 10 μl of calcein-loaded DCPP liposomes (final phospholipid concentration, 5 μM) was added to 2 ml of MES-buffered saline at various pH values ranging from 5.0-7.4, and left to incubate with shaking 15 min at 37° C. Following incubation, calcein fluorescence was measured before and after the addition of Triton to a final concentration of 0.1%. Fluorescence intensities obtained at acidic pH values were corrected for the slight effect of pH on calcein fluorescence. The percentage of calcein release at each pH was calculated using the formula: % leakage=((in−I0)/(I100−I0))×100, where I0 is the fluorescence at neutral pH, In is the corrected intensity at acidic pH before the addition of Triton, and I100 is the total dequenched calcein at neutral pH.

[2] = Human immunodeficiency virus 1, PBMC, free, three rounds of treatment

## CCCCN1C[C@H](O)[C@@H](O)[C@H](O)[C@H]1CO [NB-DNJ, N-butyl-1,5-dideoxy-1,5-imino-D-glucitol]
HIV-1 isolate: 89.6; 1 mM free in medium, first week
  reduction in viral secretion: 75%
HIV-1 isolate: 89.6; [2]
  IC50: 250 µM
  IC90: 375 µM
HIV-1 isolate: 89.6; NB-DNJ 250 uM
  % p24 secretion Week 1: 98%
  % p24 secretion Week 2: 79%
  % p24 secretion Week 3: 54%
  % p24 secretion Week 4: 59%
  % p24 secretion Week 1-rb: 81%
  % p24 secretion Week 2-rb: 70%
  % p24 secretion Week 3-rb: 73%
  % p24 secretion Week 4-rb: 66%
HIV-1 isolate: 89.6; NB-DNJ 500 uM
  % p24 secretion Week 1: 36%
  % p24 secretion Week 2: 16%
  % p24 secretion Week 3: 2%
  % p24 secretion Week 4: 0%
  % p24 secretion Week 1-rb: 35%
  % p24 secretion Week 2-rb: 8%
  % p24 secretion Week 3-rb: 0%
  % p24 secretion Week 4-rb: 0%
HIV-1 isolate: 89.6; NB-DNJ 1000 uM
  % p24 secretion Week 1: 25%
  % p24 secretion Week 2: 1%
  % p24 secretion Week 3: 1%
  % p24 secretion Week 4: 0%
  % p24 secretion Week 1-rb: 21%
  % p24 secretion Week 2-rb: 0%
  % p24 secretion Week 3-rb: 0%
  % p24 secretion Week 4-rb: 0%
CHO cells; 10 μM encapsulated in DCPP liposomes
  Efficiency (calcein/rhodamine, AU): 21.7 ± 1.5 AU
CHO cells; 10 μM in DCPP liposomes
  increase of efficiency of intracellular delivery: approximately 2 fold
CHO cells; 1 mM encapsulated in DCPP liposomes
  Efficiency (calcein/rhodamine, AU): 28.4 ± 2.4 AU
CHO cells; 1 mM in DCPP liposomes
  increase of efficiency of intracellular delivery: ~3 fold
CHO cells; 1-mM formulation in DCPP-Rh liposomes
  increase in dequenched calcein: ~2.3 fold
CHO cells; 10-μM formulation in DCPP-Rh liposomes
  increase in dequenched calcein: ~1.8 fold
[1]
  pH sensitivity / stability of DCPP liposomes: significant decrease in pH sensitivity
